We go through three compounds from patent US9012608B2 (priority 2007, dated 2015).

The conditions of series [1]: mouse, in vivo.
Series [2] relates to B. anthracis Sterne strain spores. On the set-up: species or system Bacillus anthracis. The note with it: in vivo.

Regarding `C[C@H]1c2cccc(O)c2C(=O)C2=C(O)[C@]3(O)C(=O)C(C(N)=O)=C(O)[C@@H](N(C)C)[C@@H]3[C@@H](O)[C@@H]21` [doxycycline], in series [1], the tolerance result is reported as “not well tolerated”.
`CN(C)[C@@H]1C(O)=C(C(N)=O)C(=O)[C@@]2(O)C(O)=C3C(=O)c4c(O)cccc4[C@@](C)(O)[C@H]3C[C@@H]12` [tetracycline] had a survival in series [2] of 60%.
As for `O=C(O)c1cn(C2CC2)c2cc(N3CCNCC3)c(F)cc2c1=O` [ciprofloxacin], in series [1], the “tolerance to selected dose” value is “favorably tested”.
